From US8492428B2 (priority 2005, dated 2013)
Entries after “also recorded” stand apart in the source; their conditions may differ. Read-outs that look alike come from different tables or passages of the source.

How the values were obtained:
[1] = target: endopeptidase (LC) of botulinum neurotoxin serotype A (BoNTA) (Clostridium botulinum, UniProt P0DPI0); test: biochemical; settings: for inhibition at 100 µM: read-out: % Inhibition at 100 μM, BoNTA LC
[2] = target: endopeptidase (LC) of botulinum neurotoxin serotype B (BoNTB) (Clostridium botulinum, UniProt P10844); test: biochemical; format: biochemical; settings: for inhibition at 100 µM: read-out: % Inhibition at 100 μM, BoNTB LC
endopeptidase (LC) of botulinum neurotoxin serotype B (BoNTB), sequence (P10844 2-441 limits assumed): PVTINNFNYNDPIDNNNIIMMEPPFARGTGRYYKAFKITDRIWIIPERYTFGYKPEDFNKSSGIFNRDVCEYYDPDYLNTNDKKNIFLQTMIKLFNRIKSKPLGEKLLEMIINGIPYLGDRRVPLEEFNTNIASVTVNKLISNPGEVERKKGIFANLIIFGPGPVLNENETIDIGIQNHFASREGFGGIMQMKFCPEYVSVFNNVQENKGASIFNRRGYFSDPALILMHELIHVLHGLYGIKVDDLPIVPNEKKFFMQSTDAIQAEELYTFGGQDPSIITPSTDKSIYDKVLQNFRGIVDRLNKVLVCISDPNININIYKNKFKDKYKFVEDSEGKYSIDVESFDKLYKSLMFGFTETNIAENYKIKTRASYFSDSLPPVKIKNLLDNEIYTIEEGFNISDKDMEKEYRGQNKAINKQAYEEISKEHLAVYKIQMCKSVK

BoNTA light chain = BoNTA light chain (Clostridium botulinum, UniProt P0DPI0); test: biochemical
BoNTA light chain, sequence (P0DPI0 2-448 limits assumed): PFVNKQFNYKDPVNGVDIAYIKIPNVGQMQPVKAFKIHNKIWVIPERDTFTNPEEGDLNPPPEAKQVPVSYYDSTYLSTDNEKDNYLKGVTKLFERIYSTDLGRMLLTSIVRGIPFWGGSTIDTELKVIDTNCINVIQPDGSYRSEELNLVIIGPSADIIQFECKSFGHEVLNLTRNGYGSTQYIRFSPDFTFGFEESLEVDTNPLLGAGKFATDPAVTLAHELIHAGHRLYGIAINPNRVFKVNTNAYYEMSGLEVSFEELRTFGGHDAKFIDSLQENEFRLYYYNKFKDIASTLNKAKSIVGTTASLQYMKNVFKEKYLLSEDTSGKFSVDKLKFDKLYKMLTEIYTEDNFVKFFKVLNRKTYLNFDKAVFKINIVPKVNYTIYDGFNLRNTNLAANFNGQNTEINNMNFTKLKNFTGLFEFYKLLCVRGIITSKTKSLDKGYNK

endopeptidase (LC) of botulinum neurotoxin serotype A (BoNTA), sequence (P0DPI0 2-448 limits assumed): as above

Row | SMILES | inhibition at 100 µM [1] [%] | inhibition of the endopeptidase of BoNTA, in words (comparisons) [1] | inhibition at 100 µM [2] [%] | melting point | further results
1 | O=C(O)Cc1cc(C(=O)c2ccc(Cl)cc2)sc1-c1ccccc1 [Compound 1, [5-(4-Chlorobenzoyl)-2-phenylthiophene-3-yl]acetic acid] | 15 |  |  |  | 
2 | O=C(Cc1cc(C(=O)c2ccc(Cl)cc2)sc1-c1ccccc1)NO [Compound 2, 2-[5-(4-Chlorobenzoyl)-2-phenylthiophene-3-yl]-N-hydroxyacetamide] | 30 | more active in inhibiting the endopeptidase than 1 | 0 |  | effect on the endopeptidase of BoNTB, in words [2]: no effect
3 | Nc1cc(C(=O)c2cc(CC(=O)NO)c(-c3ccccc3)s2)ccc1I [Compound 4, 2-[5-(3-Amino-4-iodobenzoyl)-2-phenylthiophene-3-yl]-N-hydroxyacetamide] | 40 | more active in inhibiting the endopeptidase than 2 | 0 | > 170 °C (dec.) | effect on the endopeptidase of BoNTB, in words [2]: no effect
4 | O=C(Cc1cc(C(=O)c2ccc(I)c([N+](=O)[O-])c2)sc1-c1ccccc1)NO [Compound 5, 2-[5-(3-Nitro-4-iodobenzoyl)-2-phenylthiophene-3-yl]-N-hydroxyacetamide] |  |  |  | 147 to 151 °C | 
5 | NNC(=O)Cc1cc(C(=O)c2ccc(Br)cc2)sc1-c1ccccc1 [Compound 6, [5-(4-Bromobenzoyl)-2-phenylthiophene-3-yl]acetic acid hydrazide] |  |  |  | 157 to 161 °C | 
6 | NNC(=O)Cc1cc(C(=O)c2ccc(I)c(N)c2)sc1-c1ccccc1 [Compound 7, [5-(3-Amino-4-iodobenzoyl)-2-phenylthiophene-3-yl]acetic acid hydrazide] |  |  |  | 159 to 165 °C | 
7 | O=C(O)Cc1cc(C(=O)c2ccc3cc(-c4ccccc4)[nH]c3c2)sc1-c1ccccc1 [Compound 8, [2-Phenyl-5-(2-phenyl-1H-indole-6-carbonyl)thiophene-3-yl]acetic acid] |  | less potent in inhibiting the endopeptidase than 1 and 2 |  |  | 
8 | O=C(Cc1cc(C(=O)c2ccc3cc(-c4ccccc4)[nH]c3c2)sc1-c1ccccc1)NO [Compound 9, N-Hydroxy-2-[2-phenyl-5-(2-phenyl-1H-indole-6-carbonyl)thiophene-3-yl]acetamide] |  | less potent in inhibiting the endopeptidase than 1 and 2 |  |  | 
9 | Cl.NCCCCn1c(-c2ccccc2)cc2ccc(C(=O)c3cc(CC(=O)NO)c(-c4ccccc4)s3)cc21 [Compound 12, 2-{5-[1-(4-Aminobutyl)-2-phenyl-1H-indole-6-carbonyl]-2-phenylthiophene-3-yl}-N-hydroxyacetamide hydrochloride] | 96 |  | 0 |  | Ki (BoNTA light chain): 12 ± 2.6 µM; effect of adding more zinc on the inhibition of BoNTA [1]: no effect; inhibition at 15 µM ([1]; read-out: % inhibition of BoNTA at 15 μM): 48%; effect on the endopeptidase of BoNTB, in words ([2]; hydrochloride): no effect; also recorded: did not inhibit
